# Reference: patent publication US6828450B2, “Triptycene analogs” (Kansas State University Research Foundation, priority 2000, dated 2004)
# Several values for one entry are separate records, joined by “and”; a condition that tells them apart may be missing. Equal entries are not always repeated.
# Key:
# [1] = target: Malaria protease plasmepsin II (Plasmodium falciparum, UniProt P46925); test: Inhibition of malaria protease plasmepsin II; type: biochemical
# L1210 cells [2] = test: cells; conditions: for IC50: read-out: IC50 (concentration inhibiting by 50% the viability of L1210 leukemic cells), day 4, Table 2 series; for inhibitory effect on L1210 cell viability: 256 nM, 4 days
# Procedure: (§1) FIG. 1. […] For tumor cell growth and viability, L1210 cells were respectively seeded in triplicate at initial densities of 1×10^4 and 1.11×10^4 cells/0.5 ml/well in RPMI 1640 medium containing 7.5% FCS and penicillin (100 IU/ml)-streptomycin (100 μg/ml), and grown for 4 days in the presence or absence (control) of 256 nM concentrations of the indicated compounds in a humidified incubator at 37° C. with 5% CO2 in air. Cell density was monitored using a Coulter counter. […] The ability of viable cells/0.5 ml to bioreduce 0.1 ml of MTS:PMS (20:1) reagent over a 3-h incubation period at 37° C. was assessed by measuring the absorbamce of the water-soluble formazan products at A490 nm.
# FIG. 4. […] Cells were seeded in triplicate at initial densities of 100,000 or 11,100 cells/0.5 ml/well and respectively incubated for 2 or 4 days in the presence or absence (control) of the indicated concentrations of drugs, which are plotted on a logarithmic scale. The ability of viable cells/0.5 ml to bioreduce 0.1 ml of MTS:PMS (20:1) reagent over a 3-h incubation period was assessed as described in FIG. 1.
# (§2) TT0 was purchased from Aldrich (Milwaukee, Wis.). All solutions of synthetic TTs and tricyclic pyrone H10, vincristine (VCR; a gift from Lilly Researeh Laboratories, Indianapolis, Ind.) and camptothecin (CPT; from Sigma Chemical Co., St Louis, Mo.) were dissolved and diluted in dimethyl sulfoxide (DMSO), whereas daunomycin (DAU) (from Sigma) solutions were prepared in 0.1 M potassium phosphate buffer, pH 7.4, containing 0.9% NaCl. Suspension cultures of murine L1210 lymphocytic leukemia cells (American Type Culture Collection, Rockville, Md.) were maintained in continuous exponential growth by twice-a-week passage in RPMI 1640 medium supplemented with 7.5% fortified bovine calf serum (FCS; HyClone Laboratories, Logan, Utah) and penicillin (100 IU/ml)-streptomycin (100 μg/ml), and incubated in the presence or absence of drugs at 37° C. in a humidified atmosphere containing 5% CO2. […] Control cells incubated in the absence of drugs were similarly treated with vehicle only and, in every experiment, all incubates received the same volume of solvent. For drug removal, incubates were spun at 200×g for 10 min, drug-containing supernatants were discarded, and intact cells were washed thrice with 1 ml of the above RPMI 1640 culture medium and resuspended in 0.5 ml of fresh medium for further incubation.
# L1210, HL-60-S, HL60-RV and HL-60-R8 cells suspended in FCS-containing RPMI 1640 medium were grown in 48-well Costar cell culture plates for up to 4 days in the presence or absence of drugs to evaluate drug cytotoxicity.
# [3] = test system: Plasmodium falciparum 3D7; test: Antimalarial activity, inhibition of Plasmodium falciparum 3D7; type: cell-based; conditions: malaria strain 3D7
# L1210 cells [4] = test: DNA cleavage (intact chromatin precipitation) in L1210 cells; type: cell-based, murine
# Procedure: FIG. 19. Comparison of the concentration-dependent effects of novel TT analogs and known DNA-damaging anticancer drugs on DNA cleavage in L1210 cells in vitro. […] After lysing the cells in HLB containing 0.2% Triton X-100, the detergent-soluble DNA fragments present in the supernatants and the intact chromatin DNA remaining in the pellets were separated by centrifugation and their radioactivity estimated by LSC. Results are expressed as [cpm in supernatant/cpm in supernatant+pellet]×100 at 24 h. For untreated controls (5.3±0.6% DNA fragmentation; striped area), the supernatant is 741±79 cpm and the pellet is 13,293±1,446 cpm.
# FIG. 20. Comparison of the abilities of novel TT analogs to induce DNA cleavage in L1210 cells in vitro. Cells containing prelabeled DNA were incubated at 37° C. for 24 h in the presence or absence (control) of 7 μM concentrations of the indicated compounds. The protocol of the experiment and the determination of the results were identical to those of FIG. 12.
# FIG. 22. Irreversibility of the effects of novel TT analogs and known DNA-damaging anticancer drugs on DNA cleavage in L1210 cells in vitro. Cells containing prelabeled DNA were incubated at 37° C. for various periods of time in the presence or absence (control) of 10 μM TT1 or TT2 and 1.6 μM DAU or CPT. The protocol of the experiment and the determination of the results at 24 h were identical to those of FIG. 19, except that the drugs were either maintained in the medium for the whole 24-h period of incubation (open) or removed after the first 3 (striped) and 8 h (closed). After spinning and washing the appropriate samples to remove the drugs, cells were resuspended in 0.5 ml of fresh medium to complete the 24-h period of incubation in the absence of drugs. Vehicle-treated controls were similarly spun and washed at 3 and 8 h. Bars: means±SD (n=3).
# Drug-induced DNA cleavage was determined by intact chromatin precipitation, using L1210, HL-60-S, HL-60-RV and HL-60-R8 cells which were prelabeled with 1 μCi of ^3H-thymidine for 2 h at 37° C., washed with 3×1 ml of ice-cold PBS, collected by centrifugation, and resuspended in fresh FCS-containing RPMI 1640 medium at a density of about 1×10^6 cells/0.5 ml for L1210 and 0.5×10^6 cells/0.5 ml for HL cells. Except when otherwise specified, such cells containing prelabeled DNA were then exposed for 24 h to TTs and drugs known to induce DNA fragmentation. After centrifugation at 200×g for 10 min to discard the drugs and wash the cells, the intact cell pellets were lysed for 30 min in 0.5 ml of HLB, centrifuged at 12,000×g for 30 min to collect the supernatants, and resuspended in 0.5 ml of HLB. After another similar centrifugation, the radioactivities in the pooled supernatants (detergent-soluble low molecular weight DNA fragments) and the pellet (intact chromatin DNA) were determined by LSC: % DNA fragmentation=[cpm in supernatant/cpm in supernatant+pellet]×100. Before being counted in 6 ml of Bio-Safe NA, the intact pelleted chromatin was incubated for 2 h at 60° C. in the presence of 0.6 ml of NCS tissue solubilizer (Amersham).
# L1210 cells [5] = test: L1210 tumor cell proliferation assay (Coulter counter); conditions: for inhibitory effect on L1210 cell growth: 256 nM, 4 days
# Procedure: as §1
# FIG. 3. […] The protocol of the experiment was identical to that of FIG. 1. […] Drug concentrations are plotted on a logarithmic scale.
# as §2
# For tumor cell growth, L1210 cells were resuspended in fresh FCS-containing RPMI 1640 medium, plated at an initial density of 1×10^4 cells/0.5 ml, and incubated in 48-well Costar cell culture plates (Costar, Cambridge, Mass.). Except when otherwise specified, cells were grown for 4 days in the presence or absence of drugs and their density was monitored every 24 h using a Coulter counter (Coulter Electronics, Luton Beds, UK).
# [6] = Water solubility (stated in words); type: physicochemical
# L1210 cells [7] = test: Mitotic index of L1210 cells; type: cell-based, murine; conditions: 24-h treatment; 0.2 μM VCR, 1 μM H10 (FIG. 18)
# Procedure: FIG. 18. Effects of the novel TT analog TT2 and DAU on the mitotic index of L1210 cells in vitro. […] Cells (10^6/0.5 ml of RPMI 1640 medium) were incubated in triplicate for 24 h at 37° C. in the presence or absence (control) of 0.256, 0.64, 1.6 and 4 μM TT2, 0.256, 0.64 and 1.6 μM DAU, 0.2 μM VCR or 1 μM H10. After fixation with MeOH:acetic acid (3:1) and staining with 0.1% crystal violet, about 500 cells/slide were scored for mitotic figures and the mitotic index was expressed as the % of mitotic cells in drug-treated cultures divided by the % of mitotic cells in non-treated controls. The mean % of mitotic cells in control at 24 h was 1.86±0.43%.
# L1210 cells (about 1×10^6/0.5 ml of FCS-containing RPMI 1640 medium) were incubated in triplicate for 24 h at 37° C. in the presence or absence of TTs or known antimitotic drugs, and collected by centrifugation at 200×g for 10 min to determine their mitotic index. For hypotonic treatment, cells were resuspended in 1 ml of 75 mM KCl for 20 min at 4° C. After fixation in 1 ml of MeOH:acetic acid (3:1), the final cell pellets were collected by centrifugation, resuspended in 75 μl of MeOH:acetic acid (3:1), dispensed onto glass slides, air dried, and stained by spreading 40 μl of 0.1% crystal violet under a coverslip. The % of cells in mitosis was determined microscopically by counting 500 cells/slides. The mitotic index was calculated as the % of mitotic cells in drug-treated cultures divided by the % of mitotic cells in non-treated controls.
# Sequence of Malaria protease plasmepsin II (P46925 125-453): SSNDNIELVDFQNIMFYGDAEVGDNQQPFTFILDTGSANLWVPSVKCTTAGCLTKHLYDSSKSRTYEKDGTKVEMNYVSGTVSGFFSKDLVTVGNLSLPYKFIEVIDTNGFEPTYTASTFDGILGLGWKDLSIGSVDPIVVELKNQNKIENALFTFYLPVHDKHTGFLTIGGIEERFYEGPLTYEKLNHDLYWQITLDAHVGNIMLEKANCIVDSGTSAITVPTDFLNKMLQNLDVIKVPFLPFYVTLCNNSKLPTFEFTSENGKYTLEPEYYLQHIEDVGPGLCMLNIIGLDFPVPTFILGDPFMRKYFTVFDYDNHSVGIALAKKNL
compound,measurement,setting,value
"CNC1=C(Br)C(=O)C2=C(C1=O)C1C3=C(C(=O)C=CC3=O)C2c2ccccc21 (stereo not drawn) [TT14, 2-Bromo-3-(methylamino)-9,10-dihydro-9,10-[1′,2′]benzenoanthracene-1,4,5,8-tetraone]",IC50,[1],9700 nM
same,IC50,L1210 cells [2],430 nM
same,IC50,[3],4700 nM
"CC[C@@]1(O)C(=O)OCc2c1cc1n(c2=O)Cc2cc3ccccc3nc2-1 [CPT, camptothecin, reference compound]",DNA cleavage (% DNA fragmentation),"L1210 cells [4]; 1.6 μM, 24 h",57%
same,"DNA fragmentation at 24 h, drug maintained or removed","L1210 cells [4]; 1.6 μM, maintained or removed after 3 or 8 h",51-58%
same,Emax,"L1210 cells [4]; Mus musculus, L1210, concentrations of CPT higher than 1.6 μM, 24 h, read-out: DNA cleavage, plateau of maximal stimulation",60 to 70%
"CC(C)c1nc(CN(C)C(=O)N[C@H](C(=O)N[C@@H](Cc2ccccc2)C[C@H](O)[C@H](Cc2ccccc2)NC(=O)OCc2cncs2)C(C)C)cs1 [ritonavir, reference compound]",IC50,[3]; Plasmodium falciparum,9700 nM
"COC(=O)[C@@]12C(=O)C=CC(=O)[C@@H]1C1c3ccccc3C2c2c(OC)ccc(OC)c21 (relative stereo) [TT11, (4aR*,9aR*)-5,8-Dimethoxy-4a-methoxycarbonyl-9,9a,10-trihydro-9,10-[1′,2′]benzenoanthracene-1,4-dione]",inhibitory effect on L1210 cell growth,L1210 cells [5],marginal
same,DNA cleavage (% DNA fragmentation),"L1210 cells [4]; 7 μM, 24 h, control 5%",7%
same,inhibitory effect on L1210 cell viability,L1210 cells [2],marginal
"COC(=O)C1=CC(=O)[C@H]2C3c4ccccc4C(c4c(OC)ccc(OC)c43)[C@H]2C1=O (relative stereo) [TT10, (4aS*,9aR*)-5,8-Dimethoxy-2-methoxycarbonyl-4a,9,9a,10-tetrahydro-9,10-[1′,2′]benzenoanthracene-1,4-dione]",inhibitory effect on L1210 cell growth,L1210 cells [5],weak
same,inhibitory effect on L1210 cell viability,L1210 cells [2],weak
O=C(O)CCNC1=C(O)C(=O)C2=C(C1=O)C1C3=C(C(=O)C=CC3=O)C2c2ccccc21 (stereo not drawn) [TT21],water solubility,[6],water soluble
"9,10-Dihydro-9,10-[1′,2′]benzenoanthracene-1,4,5,8-tetraone [TT1]",DNA fragmentation at 24 h after short exposure,"L1210 cells [4]; 10 μM, drug removed after 3 and 8 h",36-45%
same,DNA cleavage (% DNA fragmentation),"L1210 cells [4]; 10 μM, whole 24 h",45% and 40%
"CC[C@]1(O)C[C@H]2CN(CCc3c([nH]c4ccccc34)[C@@](C(=O)OC)(c3cc4c(cc3OC)N(C=O)[C@H]3[C@@](O)(C(=O)OC)[C@H](OC(C)=O)[C@]5(CC)C=CCN6CC[C@]43[C@@H]65)C2)C1 [VCR, vincristine, reference compound]",increase in the mitotic index,L1210 cells [7],16 fold
"O=C(O)CCNC1=C(Br)C(=O)C2=C(C1=O)C1C3=C(C(=O)C=CC3=O)C2c2ccccc21 (stereo not drawn) [Compound 13, N-(2-Bromo-9,10-dihydro-1,4,5,8-tetraoxo-9,10-[1,2]benzenoanthracene-3-yl)-3-aminopropanoic acid]",IC50,L1210 cells [2],1480 nM
"c1ccc2c(c1)C1c3ccccc3C2c2ccccc21 [TT0, triptycene]",activity against macromolecule synthesis and growth of L1210 cells,L1210 cells [5]; in vitro,inactive
"CCOC(=O)CCNC1=C(Br)C(=O)C2=C(C1=O)C1C3=C(C(=O)C=CC3=O)C2c2ccccc21 (stereo not drawn) [TT17, 2-Bromo-3-[2-(ethoxycarbonyl)ethylamino]-9,10-dihydro-9,10-[1′,2′]benzenoanthracene-1,4,5,8-tetraone]",IC50,L1210 cells [2],240 nM
"CC(C)(C)OC(=O)CCNC1=C(Br)C(=O)C2=C(C1=O)C1C3=C(C(=O)C=CC3=O)C2c2ccccc21 (stereo not drawn) [Compound 12, 2-Bromo-3-[2-(t-butoxycarbonyl)ethylamino]-9,10-dihydro-9,10-[1,2]benzenoanthracene-1,4,5,8-tetraone]",IC50,L1210 cells [2],310 nM
"COC1=C(Br)C(=O)C2=C(C1=O)C1C3=C(C(=O)C=CC3=O)C2c2ccccc21 (stereo not drawn) [TT13, 2-Bromo-3-methoxy-9,10-dihydro-9,10-[1′,2′]benzenoanthracene-1,4,5,8-tetraone]",IC50,L1210 cells [2],291 nM
